The record followed here is PubChem BioAssay (NCI).

Some test systems named below: MALME-3M melanoma; A549 NSCLC; HOP-62 NSCLC; MOLT-4 leukemia; M14 melanoma; EKVX NSCLC; NCI/ADR-RES ovarian; OVCAR-5 ovarian; NCI-H522 lung; ACHN renal; CCRF-CEM leukemia; SN12C renal; A498 renal; UO-31 renal; BT-549 breast; HL-60(TB) leukemia; RXF 393 renal; SF-539 CNS; UACC-257 melanoma; T-47D breast.
Common to all, as to test: NCI anticancer screen, dose series, 48 h

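Cells were grown in 96-well plates and exposed to each compound for 48 hours at five concentrations; endpoints were interpolated linearly between bracketing concentrations, or set to the highest concentration if not reached. TGI is the concentration that stops growth completely.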

Regarding `CSC1=N/C(=C\c2ccc(Cl)cc2)C(=O)N1CN1CCOCC1`, the TGI in the experiment on MALME-3M melanoma, in the experiment on A549 NSCLC, with HOP-62 NSCLC, with MOLT-4 leukemia, in the experiment with M14 melanoma and in the experiment with EKVX NSCLC was above 100 µM throughout. For the same molecule, the TGI with NCI/ADR-RES ovarian, in the experiment on OVCAR-5 ovarian, in the experiment on NCI-H522 lung, in the experiment on ACHN renal, in the experiment with CCRF-CEM leukemia and with SN12C renal was above 100 µM in each case. For the same molecule, the TGI in the experiment with A498 renal and with UO-31 renal was above 100 µM each time.

In the case of `Cc1cc(Cl)ccc1NC(=O)/C(CC(=O)CC(c1ccccc1)c1c(O)c2ccccc2oc1=O)=N\O` (stereo unspecified), the TGI with A549 NSCLC, in the experiment on BT-549 breast, in the experiment on HOP-62 NSCLC, in the experiment on MOLT-4 leukemia, in the experiment with M14 melanoma and with EKVX NSCLC was above 100 µM throughout. In addition, the TGI in the experiment on HL-60(TB) leukemia, in the experiment on RXF 393 renal, in the experiment on NCI/ADR-RES ovarian, in the experiment on OVCAR-5 ovarian, with NCI-H522 lung and in the experiment with SF-539 CNS was above 100 µM each time. Besides, the TGI in the experiment with ACHN renal, with CCRF-CEM leukemia, in the experiment with SN12C renal, in the experiment with UACC-257 melanoma and in the experiment with UO-31 renal was above 100 µM in each case.

In the case of `CC1=C/C(=N\N(C)C)C(C(O)(C(F)(F)F)C(F)(F)F)C(C)(C)C1` (stereo unspecified), the TGI in the experiment with MALME-3M melanoma, in the experiment with A549 NSCLC, with HOP-62 NSCLC, in the experiment on MOLT-4 leukemia, with M14 melanoma and in the experiment on EKVX NSCLC was above 100 µM in each case. Also, the TGI in the experiment on HL-60(TB) leukemia, in the experiment on RXF 393 renal, in the experiment with NCI/ADR-RES ovarian, with OVCAR-5 ovarian, in the experiment on NCI-H522 lung and in the experiment with SF-539 CNS was above 100 µM throughout. Also, the TGI in the experiment on ACHN renal, in the experiment on CCRF-CEM leukemia, in the experiment with SN12C renal, in the experiment with UACC-257 melanoma, with T-47D breast and with A498 renal was above 100 µM in each case. The same molecule yielded a TGI in the experiment with UO-31 renal above 100 µM.

For `Nc1ccccc1C(=O)NNC(=O)c1ccccc1N`, the TGI in the experiment on MALME-3M melanoma, with A549 NSCLC, in the experiment with HOP-62 NSCLC, in the experiment on MOLT-4 leukemia, in the experiment with M14 melanoma and in the experiment on EKVX NSCLC was above 100 µM in each case. Moreover, the TGI in the experiment on HL-60(TB) leukemia, in the experiment on RXF 393 renal, with NCI/ADR-RES ovarian, in the experiment on OVCAR-5 ovarian, in the experiment with NCI-H522 lung and in the experiment with SF-539 CNS was above 100 µM in each case. For the same molecule, the TGI with ACHN renal, with CCRF-CEM leukemia, in the experiment on SN12C renal, with UACC-257 melanoma, with T-47D breast and in the experiment on A498 renal was above 100 µM throughout. This molecule gave a TGI in the experiment with UO-31 renal above 100 µM.

In the case of `NC(=Nc1ccc(Cl)c(Cl)c1)c1ccccc1N`, the TGI in the experiment with MALME-3M melanoma was 45.9 µM; with A549 NSCLC it was above 100 µM; with BT-549 breast, above 100 µM; in the experiment on HOP-62 NSCLC, above 100 µM; in the experiment on MOLT-4 leukemia, 69.3 µM; with M14 melanoma it was 41.4 µM. For the same molecule, the TGI in the experiment on EKVX NSCLC was above 100 µM; in the experiment on HL-60(TB) leukemia it was 52 µM; in the experiment on RXF 393 renal it was 75.9 µM; with NCI/ADR-RES ovarian, 95.5 µM; in the experiment with OVCAR-5 ovarian, above 100 µM; in the experiment with NCI-H522 lung it was 32.6 µM. Also, the TGI is above 100 µM with ACHN renal; above 100 µM with CCRF-CEM leukemia; 92.7 µM in the experiment with UACC-257 melanoma; 55.1 µM with A498 renal; above 100 µM in the experiment with UO-31 renal.

`CN=C1Nc2ccccc2C(=S)N2CSC[C@@H]12`: the TGI with MALME-3M melanoma, in the experiment on A549 NSCLC, in the experiment with HOP-62 NSCLC, in the experiment on MOLT-4 leukemia, in the experiment on M14 melanoma and with RXF 393 renal was above 100 µM throughout. The TGI with NCI/ADR-RES ovarian, in the experiment on OVCAR-5 ovarian, in the experiment with NCI-H522 lung, in the experiment on SF-539 CNS, in the experiment on ACHN renal and in the experiment on SN12C renal was above 100 µM in each case. Besides, the TGI in the experiment with T-47D breast, in the experiment on A498 renal and in the experiment on UO-31 renal was above 100 µM each time.

Take `CC1(C)C[C@H]2C3=CC[C@@H]4[C@@]5(C)CC[C@H](O)C(C)(C)[C@@H]5CC[C@@]4(C)[C@]3(C)C[C@@H](O)[C@@]23C[C@@H]1OC3=O`: the TGI in the experiment with MALME-3M melanoma, with A549 NSCLC, in the experiment with HOP-62 NSCLC, in the experiment on MOLT-4 leukemia, with M14 melanoma and in the experiment with EKVX NSCLC was above 100 µM in each case. For the same molecule, the TGI in the experiment with HL-60(TB) leukemia, in the experiment with NCI/ADR-RES ovarian, in the experiment on OVCAR-5 ovarian, in the experiment with NCI-H522 lung, in the experiment on SF-539 CNS and in the experiment with ACHN renal was above 100 µM in each case. The TGI in the experiment with CCRF-CEM leukemia, in the experiment with SN12C renal, with UACC-257 melanoma, in the experiment on T-47D breast, in the experiment with A498 renal and in the experiment with UO-31 renal was above 100 µM each time.

As to `CCCCC1(OC(=O)CCC(=O)O)CCC2(CCC(C)C(C/C=C(C)/C=C/C(O)C(C)/C=C/C(=O)O)O2)OC1CC/C(C)=C/C(=O)O` (stereo unspecified), the TGI turned out to be 20.3 µM in the experiment with MALME-3M melanoma; 36.6 µM in the experiment on A549 NSCLC; 4.96 µM with HOP-62 NSCLC; 26.9 µM in the experiment with MOLT-4 leukemia; 4.52 µM in the experiment on M14 melanoma; 25.7 µM in the experiment on EKVX NSCLC. The TGI was found to be 24.5 µM with HL-60(TB) leukemia; 4.58 µM in the experiment on RXF 393 renal; 14.4 µM in the experiment on OVCAR-5 ovarian; 7.72 µM in the experiment with NCI-H522 lung; 3.51 µM in the experiment with SF-539 CNS; 26.2 µM with ACHN renal. In addition, the TGI worked out at 27.4 µM with CCRF-CEM leukemia; 9.2 µM in the experiment on SN12C renal; 2.57 µM in the experiment with UACC-257 melanoma; 12.6 µM in the experiment with A498 renal; 8.14 µM in the experiment with UO-31 renal.
